The record followed here is patent publication US20230399287A1, “NOVEL COMPOUNDS” (Sitryx Therapeutics Limited, priority 2020, published 2023).

The structures appear in SMILES notation.

The test system of one data set is IL-1β. The experiment in a line: THP-1 AlphaLISA IL-1β cytokine assay. Type of data set: cell-based. The note with it: Homo sapiens, THP-1, differentiated THP-1 cells, LPS 24 hr then Nigericin 1 hour. In a few lines:
(§1)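 THP-1 cells differentiated with PMA for 72 h, pre-incubated with compound for 30 min, primed with LPS for 24 h, then given nigericin for 1 h at 37 °C. IL-1β and IL-6 in supernatants were read by AlphaLISA. % inhibition was set against ±LPS controls and IC50 taken from concentration–response curves.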
For orientation: In Alpha technology, singlet oxygen from a donor bead excites a nearby acceptor bead.

For another data set, the system named is IL-6. In words: THP-1 AlphaLISA IL-6 cytokine assay. The data set is classed as cell-based. As to conditions: Homo sapiens, THP-1, differentiated THP-1 cells, LPS 24 hr then Nigericin 1 hour. A digest of the protocol: as §1
For another data set, the system named is NRF2. In words: NRF2 +/- GSH activation assay (DiscoverX PathHunter NRF2 translocation kit). Type of data set: cell-based. The note with it: for Emax: normalised to dimethyl fumarate high control; for EC50: Homo sapiens, U2OS, U2OS PathHunter cells.
Data set [1] is described as follows: Hepatocyte stability assay (human). Type of data set: in vitro ADME. The note with it: human, cryopreserved hepatocytes, 10 μM compound, 60 min, read-out: T½. A digest of the protocol:
(§2)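 Cryopreserved human or mouse hepatocytes (0.5×10^6 cells/mL in Leibovitz buffer) were incubated with 10 μM compound (0.1% DMSO) at 37° C in duplicate, alongside a buffer-only control. Samples taken from 0 to 60 min were analysed by LC-MS/MS. Half-life and Clint (μL min^−1 10^−6 cells) came from the ln % remaining versus time slope.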

For data set [2], the system named is hepatocytes. The experiment in a line: Hepatocyte stability assay (human). Type of data set: in vitro ADME. The note with it: 10 μM compound, 60 min. In a few lines: as §2
Data set [3] can be described thus: Hepatocyte stability assay (mouse). The data set is classed as in vitro ADME. As to conditions: mouse, cryopreserved hepatocytes, 10 μM compound, 60 min, read-out: T½. In a few lines:
as §2

Data set [4] deals with hepatocytes. The experiment in a line: Hepatocyte stability assay (mouse). The data set is classed as in vitro ADME. As to conditions: 10 μM compound, 60 min. A digest of the protocol: as §2

As usually defined, the IC50 is the concentration that inhibits the measured activity by half. A high value points to lower potency. The Emax is the maximal effect, on the per cent scale that the assay sets. One may read the EC50 as the midpoint of the concentration-response curve. `C=C(CC(=O)OC1(c2ccc(-c3ccc(C(F)(F)F)cc3)cc2)CCC1)C(=O)O` [Example 26, 2-methylene-4-oxo-4-(1-(4′-(trifluoromethyl)-[1,1′-biphenyl]-4-yl)cyclobutoxy)butanoic acid]: the IC50 in the data set on IL-1β came to 42 µM; in the data set with IL-6, 3.7 µM. Further, the figures for the Emax in the data set with NRF2 (+GSH) and in the data set on NRF2 (−GSH) were 34% and 88%, respectively. Also, the EC50 is greater than 100 µM in the data set on NRF2 (+GSH) and 24.1 µM in the data set on NRF2 (−GSH). The half-life at 10 μM in data set [1] is 0.1 h; in data set [3] it was less than 0.05 h. In addition, the Clint with hepatocytes [2] is reported as 238 μL min^−1 10^−6 cells; in the data set on hepatocytes [4], greater than 460 μL min^−1 10^−6 cells.
Regarding `C=C(CC(=O)OC1(c2ccc(C#CC(F)(F)F)cc2)CCC1)C(=O)O` [Example 36, 2-methylene-4-oxo-4-(1-(4-(3,3,3-trifluoroprop-1-yn-1-yl)phenyl)cyclobutoxy)butanoic acid], the IC50 was greater than 31.6 µM in the data set on IL-1β and 5.6 µM in the data set with IL-6. Besides, the Emax in the data set with NRF2 (+GSH) came to 90%; in the data set with NRF2 (−GSH), 116%. For the same molecule, the EC50 worked out at 8.6 µM in the data set on NRF2 (+GSH) and 9 µM in the data set with NRF2 (−GSH). For the same molecule, the results for the half-life at 10 μM in data set [1] and in data set [3] were 1.87 h and less than 0.05 h, respectively. The Clint is 12 μL min^−1 10^−6 cells in the data set with hepatocytes [2] and greater than 460 μL min^−1 10^−6 cells with hepatocytes [4].
Turning to `C=C(CC(=O)OC1(c2ccc(C(F)(F)F)cc2)CSC1)C(=O)O` [Example 40, 2-methylene-4-oxo-4-((3-(4-(trifluoromethyl)phenyl)thietan-3-yl)oxy)butanoic acid], the IC50 with IL-1β was 0.8 µM; with IL-6, greater than 100 µM. The Emax with NRF2 (+GSH) worked out at 9%; with NRF2 (−GSH), 61%. Also, the figures for the EC50 in the data set with NRF2 (+GSH) and in the data set with NRF2 (−GSH) were greater than 100 µM and 1.7 µM, respectively. The half-life at 10 μM in data set [1] is 1.68 h; in data set [3], 1.48 h. Also, the Clint in the data set on hepatocytes [2] was 12 μL min^−1 10^−6 cells; in the data set with hepatocytes [4], 25 μL min^−1 10^−6 cells.
As to `C=C(CC(=O)OC1(c2ccc(C(F)(F)F)cn2)CC1)C(=O)O` [Example 58, 2-methylene-4-oxo-4-(1-(5-(trifluoromethyl)pyridin-2-yl)cyclopropoxy)butanoic acid], the IC50 in the data set with IL-1β is 3.2 µM; in the data set with IL-6 it was greater than 42.2 µM. In addition, the values for the Emax in the data set on NRF2 (+GSH) and in the data set with NRF2 (−GSH) were 0% and 1%, respectively. The EC50 in the data set with NRF2 (+GSH) and in the data set on NRF2 (−GSH) was greater than 100 µM each time. Also, the results for the half-life at 10 μM in data set [1] and in data set [3] were 6.2 h and 5.45 h, respectively. Besides, the Clint with hepatocytes [2] and in the data set with hepatocytes [4] was 5 μL min^−1 10^−6 cells throughout.
As for `C=C(CC(=O)OC1(c2ccc(C(F)(F)F)nn2)CCC1)C(=O)O` [Example 62, 2-methylene-4-oxo-4-(1-(6-(trifluoromethyl)pyridazin-3-yl)cyclobutoxy)butanoic acid], the IC50 in the data set on IL-1β was 5 µM; in the data set with IL-6 it was greater than 31.6 µM. Moreover, the Emax with NRF2 (+GSH) was determined as 4%; with NRF2 (−GSH) it was 1%. Besides, the EC50 in the data set with NRF2 (+GSH) and in the data set with NRF2 (−GSH) was greater than 100 µM in each case. The results for the half-life at 10 μM in data set [1] and in data set [3] were greater than 7.67 h and 7.23 h, respectively. The Clint in the data set with hepatocytes [2] was less than 3 μL min^−1 10^−6 cells; in the data set with hepatocytes [4], 4 μL min^−1 10^−6 cells.
